We go through four compounds from patent USRE37302E, “Peptide” (Novo Nordisk A/S, priority 1992, dated 2001).

“Also recorded” adds a separate entry of the source. Where no end group is shown, it is not given here.

In assay [1] the test system is insulin treated obese NIDDM patients. Briefly: Meal test in insulin treated obese NIDDM patients (Example 1). The settings on record: meal-related, glibenclamide 1 mg i.v., GLP-1(7-36)amide infusion 0.75 pmol/kg/min for 210 min, 6 NIDDM patients. It is filed as in vivo, human.
For assay [2], the system named is patients with NIDDM and secondary failure to sulfonylurea treatment. Nature of the assay: Basal state and meal test in NIDDM patients with secondary failure to sulfonylurea treatment (Example 2). It is filed as in vivo, human. Conditions: for Insulinogenic index: after ingestion of the meal, integrated insulin/integrated glucose response; for Blood glucose: 45 minutes after start of administration, glibenclamide 1 mg i.v., GLP-1(7-36)amide 0.75 pmol/kg/min.

Assay [3] relates to isolated precultured rat pancreatic islets. Conditions: in the presence of glucose; cited from earlier work.
The subject of assay [4] is diabetic as well as nondiabetic subjects. Conditions: diabetic and nondiabetic subjects; cited from earlier work.

Take `COc1ccc(Cl)cc1C(=O)NCCc1ccc(S(=O)(=O)NC(=O)NC2CCCCC2)cc1` [glibenclamide]: the Glucagon response result in assay [1] is “no significant influence on glucagon release; also recorded: no significant effect”. The compound also gave an Insulinogenic index in assay [2] of 10.6 ± 2.8. The Blood glucose in assay [2] (basal state) amounted to 6.0 ± 0.3 mmol/L. In addition, in assay [2] (basal state, in words), the “effect on blood glucose and C-peptide levels” value is “no significant effect on its own”.

For “GLP-1(1-36)amide (HDEFERHAEGTFTSDVSSYLEGQAAKEFIAWLVKGR-NH2; UniProt P01275 92-127, looked up, fragment) [amide of the GLP-1 fragment comprising amino acid residues 1 to 36]”, in assay [3], the insulin release entry is “stimulates insulin release”.

For the compound GLP-1(7-36)amide, the Glucagon response in assay [1] is 10451 ± 5126 pg/ml/210 min; in assay [1] (listed as GLP-1(7-36) amide) it was “suppressed the glucagon response”. This compound also showed an Insulinogenic index in assay [2] of 21.0 ± 7.2. The same compound registered a Blood glucose in assay [2] (basal state) of 5.1 ± 0.4 mmol/L.

In the case of “GLP-1(7-37) (HAEGTFTSDVSSYLEGQAAKEFIAWLVKGRG; Glucagon-like peptide 1(7-37); UniProt P01275 98-128, looked up) [GLP-1 fragment, residues 7 to 37; formula I when X is Gly--OH]”, the insulinotropic action entry in assay [4] was “has been demonstrated”.
